Data from US10738015B2, “1,3-diaza-spiro-[3.4]-octane derivatives” (priority 2017, dated 2020).
Read-outs that look alike come from different tables or passages of the source.

How the values were obtained:
[1] = target: human mu-opioid peptide (hMOP) receptor (Homo sapiens (Human), UniProt P35372); experiment: hMOP receptor binding assay (SPA)
Procedure: Human Mu-Opioidpeptide (hMOP) Receptor Binding Assay
The hMOP receptor binding assay was performed as homogeneous SPA-assay (scintillation proximity assay) using the assay buffer 50 mM TRIS-HCl (pH 7.4) supplemented with 0.052 mg/ml bovine serum albumin (Sigma-Aldrich Co. St. Louis, Mo.). […] The assay was started by adding wheat germ agglutinin coated SPA beads (GE Healthcare UK Ltd. Buckinghamshire. UK) which had been preloaded with hMOP receptor membranes (PerkinElmer Life Sciences. Inc. Boston, Mass. USA).

[2] = target: human nociceptin/orphanin FQ peptide (hNOP) receptor (Homo sapiens (Human), UniProt P41146); experiment: hNOP receptor binding assay (SPA)
Procedure: Human Nociceptin/Orphanin FQ Peptide (hNOP) Receptor Binding Assay
The hNOP receptor binding assay was performed as homogeneous SPA-assay (scintillation proximity assay) using the assay buffer 50 mM TRIS-HCl, 10 mM MgCl2, 1 mM EDTA (pH 7.4). The final assay volume (250 μl/well) included 0.5 nM of [leucyl-^3H]nociceptin as ligand (PerkinElmer Life Sciences. Inc. Boston, Mass. USA) and either test compound in dilution series or 1 μM unlabelled nociceptin for determination of unspecific binding. The test compound was diluted with 25% DMSO in H2O to yield a final 0.5% DMSO concentration which also served as a respective vehicle control. The assay was started by adding wheat germ agglutinin coated SPA beads (GE Healthcare UK Ltd. Buckinghamshire. UK) which had been preloaded with hNOP receptor membranes (PerkinElmer Life Sciences. Inc. Boston, Mass. USA). After incubation for 60 minutes at RT and centrifugation for 20 minutes at 500 rpm the signal rate was measured by means of a 1450 Microbeta Trilux ß-counter (PerkinElmer Life Sciences/Wallac. Turku. Finland). Half-maximal inhibitory concentration (IC50) values reflecting 50% displacement of [^3H]nociceptin-specific receptor binding were calculated by nonlinear regression analysis and Ki values were calculated by using the Cheng-Prusoff equation. (Cheng and Prusoff. 1973).

[3] = Ki, displacement of [3H]naloxone, hMOP receptor membranes, read-out: hMOP Ki [nM] or % inhibition at 1 μM
[4] = Ki, displacement of [leucyl-3H]nociceptin, hNOP receptor membranes, read-out: hNOP Ki [nM] or % inhibition at 1 μM
[5] = read-out: hMOP Ki [nM] or % inhibition at 1 μM

Sequence of human mu-opioid peptide (hMOP) receptor (P35372 whole entry): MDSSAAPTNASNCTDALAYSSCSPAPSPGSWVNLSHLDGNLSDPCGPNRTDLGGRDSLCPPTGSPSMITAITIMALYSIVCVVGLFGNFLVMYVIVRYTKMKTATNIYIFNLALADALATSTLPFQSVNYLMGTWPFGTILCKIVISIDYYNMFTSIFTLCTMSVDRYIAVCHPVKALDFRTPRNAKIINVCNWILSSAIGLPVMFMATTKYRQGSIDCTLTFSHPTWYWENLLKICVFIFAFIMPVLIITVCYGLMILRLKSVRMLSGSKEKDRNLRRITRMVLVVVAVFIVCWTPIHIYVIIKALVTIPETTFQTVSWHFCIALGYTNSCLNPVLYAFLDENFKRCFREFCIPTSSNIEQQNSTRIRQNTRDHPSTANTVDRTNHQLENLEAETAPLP

Row | SMILES | Ki [1, 3] [nM] | Ki [2, 4] [nM] | inhibition at 1 µM [1, 5] [%] | Ki [1] [nM] | Ki [2] [nM]
1 | CN(C)[C@]1(c2ccccc2)C[C@@]2(CN(c3ccc(OC(F)(F)F)cn3)C(=O)N2CC2(F)COC2)C1 [SC-29, Cis-2-(dimethylamino)-5-((3-fluorooxetan-3-yl)methyl)-2-phenyl-7-(5-(trifluoromethoxy)pyridin-2-yl)-5,7-diazaspiro[3.4]octan-6-one] | 65 | 16 |  |  | 
2 | CN(C)[C@]1(c2ccccc2)C[C@@]2(CN(CC(N)=O)C(=O)N2)C1 [SC-1, Cis-2-(2-(dimethylamino)-6-oxo-2-phenyl-5,7-diazaspiro[3.4]octan-7-yl)acetamide] |  | 200 | 19 |  | 
3 | COc1nc(C#N)ncc1N1C[C@]2(C[C@@](c3ccccc3)(N(C)C)C2)NC1=O [SC-5, trans-5-(2-(dimethylamino)-6-oxo-2-phenyl-5,7-diazaspiro[3.4]octan-7-yl)-4-methoxypyrimidine-2-carbonitrile] | 99 | 800 |  |  | 
4 | Cc1cc(C#N)cnc1N1C[C@]2(C[C@](c3cccc(F)c3)(N(C)C)C2)N(CC2CC2)C1=O [SC-16, Cis-6-(5-(cyclopropylmethyl)-2-(dimethylamino)-2-(3-fluorophenyl)-6-oxo-5,7-diazaspiro[3.4]octan-7-yl)-5-methylnicotinonitrile] | 1320 | 31 |  |  | 
5 | Cc1cc(N2CCOCC2)ncc1N1C[C@]2(C[C@](c3ccccc3)(N(C)C)C2)NC1=O [SC-19, Cis-2-(dimethylamino)-7-(4-methyl-6-morpholinopyridin-3-yl)-2-phenyl-5,7-diazaspiro[3.4]octan-6-one] | 5890 | 1810 |  |  | 
6 | CN(C)[C@]1(c2cccc(F)c2)C[C@@]2(CN(c3ccc(OC(F)(F)F)cn3)C(=O)N2CC2(F)CC2)C1 [SC-26, Cis-2-(dimethylamino)-5-((1-fluorocyclopropyl)methyl)-2-(3-fluorophenyl)-7-(5-(trifluoromethoxy)pyridin-2-yl)-5,7-diazaspiro[3.4]octan-6-one] | 1020 | 91 |  |  | 
7 | CN(C)[C@]1(c2cccc(F)c2)C[C@@]2(CN(CCC#N)C(=O)N2CC2CC2)C1 [SC-44, cis-3-(5-(cyclopropylmethyl)-2-(dimethylamino)-2-(3-fluorophenyl)-6-oxo-5,7-diazaspiro[3.4]octan-7-yl)propanenitrile] |  | 15 |  | 110 | 
8 | CN(C)[C@]1(c2cccc(F)c2)C[C@@]2(CN(c3ccc(OC(F)(F)F)cn3)C(=O)N2CC2(O)CCC2)C1 [SC-27, Cis-2-(dimethylamino)-2-(3-fluorophenyl)-5-((1-hydroxycyclobutyl)methyl)-7-(5-(trifluoromethoxy)pyridin-2-yl)-5,7-diazaspiro[3.4]octan-6-one] | 335 | 12 |  |  | 
9 | CN(C)[C@]1(c2cccc(F)c2)C[C@@]2(CN(CCS(C)(=O)=O)C(=O)N2CC2CC2)C1 [SC-31, cis-5-(cyclopropylmethyl)-2-(dimethylamino)-2-(3-fluorophenyl)-7-(2-(methylsulfonyl)ethyl)-5,7-diazaspiro[3.4]octan-6-one] | 150 |  |  |  | 15
10 | Cc1cc(C2CC2)ncc1N1C[C@]2(C[C@](c3ccccc3)(N(C)C)C2)N(CC2CC2)C1=O [SC-35, Cis-7-(6-cyclopropyl-4-methylpyridin-3-yl)-5-(cyclopropylmethyl)-2-(dimethylamino)-2-phenyl-5,7-diazaspiro[3.4]octan-6-one] | 185 | 19 |  |  | 
11 | CN(C)[C@]1(c2ccccc2)C[C@]2(CN(CC(N)=O)C(=O)N2CC2CCC2)C1 [SC-8, cis-2-(5-(cyclobutylmethyl)-2-(dimethylamino)-6-oxo-2-phenyl-5,7-diazaspiro[3.4]octan-7-yl)acetamide] | 100 | 3 |  |  | 
12 | Cc1nc(N2CCOCC2)ncc1N1C[C@]2(C[C@](c3ccccc3)(N(C)C)C2)NC1=O [SC-12, cis-2-(dimethylamino)-7-(4-methyl-2-morpholinopyrimidin-5-yl)-2-phenyl-5,7-diazaspiro[3.4]octan-6-one] |  | 630 | 13 |  | 
13 | COC(C)(C)CN1C[C@]2(C[C@](c3cccc(F)c3)(N(C)C)C2)N(CC2CC2)C1=O [SC-37, Cis-5-(cyclopropylmethyl)-2-(dimethylamino)-2-(3-fluorophenyl)-7-(2-methoxy-2-methylpropyl)-5,7-diazaspiro[3.4]octan-6-one] |  | 37 |  | 44 | 
14 | COc1nc(C#N)ncc1N1C[C@]2(C[C@](c3ccccc3)(N(C)C)C2)NC1=O [SC-3, Cis-5-(2-(dimethylamino)-6-oxo-2-phenyl-5,7-diazaspiro[3.4]octan-7-yl)-4-methoxypyrimidine-2-carbonitrile] |  |  |  |  | 370
15 | CN(C)[C@]1(c2cccc(F)c2)C[C@@]2(CN(CCC3COC3)C(=O)N2CC2CC2)C1 [SC-47, Cis-5-(cyclopropylmethyl)-2-(dimethylamino)-2-(3-fluorophenyl)-7-[2-(oxetan-3-yl)ethyl]-5,7-diazaspiro[3.4]octan-6-one] | 44 | 9 |  |  | 
16 | COc1nc(C#N)ncc1N1C[C@]2(C[C@@](c3ccccc3)(N(C)C)C2)N(CC2CCC2)C1=O [SC-11, trans-5-(5-(cyclobutylmethyl)-2-(dimethylamino)-6-oxo-2-phenyl-5,7-diazaspiro[3.4]octan-7-yl)-4-methoxypyrimidine-2-carbonitrile] | 3 | 99 |  |  | 
17 | COc1nc(C#N)ncc1N1C[C@]2(C[C@](c3ccccc3)(N(C)C)C2)N(CC2CCC2)C1=O [SC-10, cis-5-(5-(cyclobutylmethyl)-2-(dimethylamino)-6-oxo-2-phenyl-5,7-diazaspiro[3.4]octan-7-yl)-4-methoxypyrimidine-2-carbonitrile] | 157 | 2 |  |  | 
18 | CN(C)[C@]1(c2ccccc2)C[C@@]2(CN(CC(=O)N3CCS(=O)(=O)CC3)C(=O)N2)C1 [SC-2, cis-2-(dimethylamino)-7-(2-(1,1-dioxidothiomorpholino)-2-oxoethyl)-2-phenyl-5,7-diazaspiro[3.4]octan-6-one] |  | 850 | 12 |  | 
19 | CN(C)[C@]1(c2cccc(F)c2)C[C@@]2(CN(c3ccc(OC(F)(F)F)cn3)C(=O)N2CC2(F)COC2)C1 [SC-23, Cis- -2-(dimethylamino)-5-((3-fluorooxetan-3-yl)methyl)-2-(3-fluorophenyl)-7-(5-(trifluoromethoxy)pyridin-2-yl)-5,7-diazaspiro[3.4]octan-6-one] | 545 | 25 |  |  | 
20 | Cc1cc(C2CC2)ncc1N1C[C@]2(C[C@](c3ccccc3)(N(C)C)C2)N(CC2(F)COC2)C1=O [SC-36, Cis-7-(6-cyclopropyl-4-methylpyridin-3-yl)-2-(dimethylamino)-5-((3-fluorooxetan-3-yl)methyl)-2-phenyl-5,7-diazaspiro[3.4]octan-6-one] | 330 | 10 |  |  | 
21 | Cc1cc(C#N)ncc1N1C[C@]2(C[C@](c3cccc(F)c3)(N(C)C)C2)N(CC2CC2)C1=O [SC-15, cis-5-(5-(cyclopropylmethyl)-2-(dimethylamino)-2-(3-fluorophenyl)-6-oxo-5,7-diazaspiro[3.4]octan-7-yl)-4-methylpicolinonitrile] | 1330 |  |  |  | 13
22 | Cc1cc(C(F)F)ncc1N1C[C@]2(C[C@](c3cccc(F)c3)(N(C)C)C2)NC1=O [SC-22, cis-7-(6-(difluoromethyl)-4-methylpyridin-3-yl)-2-(dimethylamino)-2-(3-fluorophenyl)-5,7-diazaspiro[3.4]octan-6-one] |  | 380 | 11 |  | 
23 | CN(C)[C@]1(c2ccccc2)C[C@]2(CN(CC(=O)N3CCS(=O)(=O)CC3)C(=O)N2CC2CCC2)C1 [SC-7, trans-5-(cyclobutylmethyl)-2-(dimethylamino)-7-(2-(1,1-dioxidothiomorpholino)-2-oxoethyl)-2-phenyl-5,7-diazaspiro[3.4]octan-6-one] | 2 | 230 |  |  | 
24 | CN(C)[C@]1(c2cccc(F)c2)C[C@@]2(CN(c3ccc(OC(F)(F)F)cn3)C(=O)N2CC2CC2)C1 [SC-18, Cis-5-(cyclopropylmethyl)-2-(dimethylamino)-2-(3-fluorophenyl)-7-(5-(trifluoromethoxy)pyridin-2-yl)-5,7-diazaspiro[3.4]octan-6-one] | 805 | 55 |  |  | 
25 | CN(C)[C@]1(c2ccccc2)C[C@@]2(CN(CC(=O)N3CCS(=O)(=O)CC3)C(=O)N2CC2CCC2)C1 [SC-6, Cis-5-(cyclobutylmethyl)-2-(dimethylamino)-7-(2-(1,1-dioxidothiomorpholino)-2-oxoethyl)-2-phenyl-5,7-diazaspiro[3.4]octan-6-one] |  |  |  |  | 1
